Test systems include K-562 leukemia; SNB-19 CNS; SNB-75 CNS; HCC-2998 colon; 786-0 renal; HT29 colon; MOLT-4 leukemia; NCI-H23 lung; PC-3 prostate; DU-145 prostate.
Test in all cases: inhibition of tumour cell growth, NCI panel, 48 h

Several values for one entry are separate records, joined by “and”; a condition that tells them apart may be missing. Equal values may be shown once.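 Step 1: Grow cells in 96-well plates. Step 2: Expose to compound for 48 hours at 5 concentrations. Step 3: Interpolate endpoints linearly; if unreached, use highest concentration. GI50 = concentration required for 50% inhibition of growth. TGI denotes the concentration required for complete inhibition of growth.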

Take `C[C@]12CC[C@H]3[C@@H](CC=C4C[C@@H](O)CC[C@@]43C)[C@@H]1CC[C@@H]2N(CCO)CCO`: the TGI with K-562 leukemia is over 100 µM; with SNB-19 CNS it was over 100 µM; in the test on SNB-75 CNS, over 100 µM; with HCC-2998 colon, 94.9 µM; in the test with 786-0 renal, 42.7 µM; in the test with HT29 colon, over 100 µM. Also, the TGI with MOLT-4 leukemia, in the test on NCI-H23 lung, in the test with PC-3 prostate and with DU-145 prostate was over 100 µM in each case.

Consider `CCN(CC)CCOc1ccc(/C(=C(\Cl)c2ccccc2)c2ccccc2)cc1`, for which the GI50 in the test with K-562 leukemia was 1.55 µM; in the test with SNB-19 CNS, 5.41 µM and 2.25 µM; in the test with SNB-75 CNS it was 2190 nM and 1390 nM; with HCC-2998 colon it was 2000 nM and 2400 nM; with 786-0 renal, 940 nM and 1700 nM; with HT29 colon, 0.944 µM and 0.353 µM. Also, the GI50 in the test with MOLT-4 leukemia was 2.98 µM and 3.71 µM; with NCI-H23 lung, 5.25 µM and 2.62 µM; with PC-3 prostate, 2630 nM and 2760 nM; in the test on DU-145 prostate, 6.79 µM and 5.62 µM. Moreover, the TGI in the test on K-562 leukemia is 11.5 µM; with SNB-19 CNS, 11.9 µM and 5.41 µM; in the test on SNB-75 CNS, 8.5 µM and 4.95 µM; with HCC-2998 colon, 7.35 µM and 6.41 µM; in the test with 786-0 renal it was 1.81 µM and 3.17 µM; in the test on HT29 colon it was 2.21 µM and 1.38 µM. Also, the TGI is 11.8 µM and 13.1 µM in the test with MOLT-4 leukemia; 11.8 µM and 10.3 µM in the test with NCI-H23 lung; 9.02 µM and 10.2 µM in the test on PC-3 prostate; 13.3 µM and 19.2 µM with DU-145 prostate.

Consider `OCc1c[nH]c2ccccc12`, for which the GI50 in the test on K-562 leukemia was 33.8 µM; in the test with SNB-19 CNS it was 33 µM; in the test on SNB-75 CNS, 24200 nM; in the test with HCC-2998 colon, 20200 nM; in the test with 786-0 renal, 33700 nM; in the test on HT29 colon, 24 µM. Also, the GI50 is 39.1 µM with MOLT-4 leukemia, 19.5 µM with NCI-H23 lung, 15500 nM in the test on PC-3 prostate and 28.7 µM in the test on DU-145 prostate. The TGI was over 100 µM in the test with K-562 leukemia; over 100 µM in the test with SNB-19 CNS; over 100 µM in the test with SNB-75 CNS; 41 µM in the test with HCC-2998 colon; 93.3 µM with 786-0 renal; 54.6 µM with HT29 colon. Besides, the TGI with MOLT-4 leukemia was over 100 µM; in the test with NCI-H23 lung, 48.1 µM; with PC-3 prostate, 45.3 µM; with DU-145 prostate it was 77.4 µM.

Consider `CC(=O)OCCN1c2ccccc2Sc2cnccc21`, for which the TGI with K-562 leukemia, in the test with SNB-19 CNS, in the test on SNB-75 CNS, in the test on HCC-2998 colon, in the test with 786-0 renal and in the test on HT29 colon was over 10 µM in each case. Moreover, the TGI with MOLT-4 leukemia, with NCI-H23 lung, with PC-3 prostate and with DU-145 prostate was over 10 µM each time.

`O=C1Nc2c(C(F)(F)F)cccc2[C@]1(c1ccc(O)cc1)c1ccc(OC(F)(F)F)cc1`: the GI50 with K-562 leukemia was 8.57 µM; in the test on SNB-19 CNS, 14.1 µM; with SNB-75 CNS, 5780 nM; in the test on HCC-2998 colon it was 14000 nM; in the test with 786-0 renal, 13200 nM; in the test on HT29 colon, 10.3 µM. In addition, the GI50 was 5.34 µM in the test on MOLT-4 leukemia, 11 µM in the test on NCI-H23 lung, 4310 nM with PC-3 prostate and 11.7 µM with DU-145 prostate. The TGI in the test with K-562 leukemia is over 100 µM; in the test on SNB-19 CNS, 27.2 µM; in the test on SNB-75 CNS, 19.5 µM; with HCC-2998 colon, 29.8 µM; in the test with 786-0 renal, 28.1 µM; in the test with HT29 colon it was 28.9 µM. In addition, the TGI in the test with MOLT-4 leukemia was found to be 23.6 µM; in the test on NCI-H23 lung, 26.4 µM; in the test with PC-3 prostate, 21.3 µM; with DU-145 prostate, 23.9 µM.

On to `N#Cc1ccc(O)c(C2=NCC(c3cccc(Oc4ccccc4)c3)O2)c1` (stereo not given), for which the GI50 is 0.394 µM with K-562 leukemia; 1.39 µM in the test on SNB-19 CNS; 1080 nM with SNB-75 CNS; 881 nM in the test with HCC-2998 colon; 761 nM in the test with 786-0 renal; 5.41 µM in the test with HT29 colon. Further, the GI50 in the test with MOLT-4 leukemia was 1.67 µM; in the test with NCI-H23 lung, 1.27 µM; in the test on PC-3 prostate it was 938 nM; in the test with DU-145 prostate it was 1.27 µM. Also, the TGI in the test on K-562 leukemia was over 100 µM; in the test with SNB-19 CNS it was over 100 µM; in the test on SNB-75 CNS it was over 100 µM; in the test on HCC-2998 colon, 57.8 µM; with 786-0 renal it was 7.59 µM; in the test with HT29 colon, 41.6 µM. In addition, the TGI is over 100 µM with MOLT-4 leukemia, over 100 µM in the test on NCI-H23 lung, 41.6 µM with PC-3 prostate and over 100 µM in the test on DU-145 prostate.

Take `O=C(N/N=C/c1ccccc1O)c1ccccc1Nc1ccnc(C(F)(F)F)c1`: the GI50 in the test on K-562 leukemia is 0.53 µM; with SNB-19 CNS, 1.77 µM; with SNB-75 CNS it was 2250 nM; in the test with HCC-2998 colon, 388 nM; in the test with 786-0 renal, 460 nM; in the test with HT29 colon, 3.32 µM. The GI50 in the test on MOLT-4 leukemia is 0.28 µM; in the test on NCI-H23 lung, 1.33 µM; with PC-3 prostate, 295 nM; with DU-145 prostate, 0.478 µM. Moreover, the TGI is over 100 µM in the test on K-562 leukemia; over 100 µM in the test on SNB-19 CNS; 52.2 µM with SNB-75 CNS; 24.7 µM in the test on HCC-2998 colon; 9.26 µM in the test with 786-0 renal; 53.5 µM with HT29 colon. The TGI with MOLT-4 leukemia is over 32.3 µM; in the test on NCI-H23 lung, over 44.9 µM; in the test with PC-3 prostate, 10.1 µM; in the test with DU-145 prostate, over 48.7 µM.

Take `CCCn1cnc2c(SCc3ccccc3Cl)nc(N)nc21`: the GI50 in the test with K-562 leukemia was 6.55 µM; with SNB-19 CNS, 25.8 µM; in the test with SNB-75 CNS it was 19700 nM; with HCC-2998 colon, 17800 nM; in the test with 786-0 renal, 14900 nM; in the test with HT29 colon, 7.59 µM. Moreover, the GI50 was 5.22 µM with MOLT-4 leukemia, 30 µM in the test with NCI-H23 lung, 6490 nM in the test with PC-3 prostate and 15.5 µM in the test on DU-145 prostate. The TGI in the test on K-562 leukemia is over 100 µM; in the test with SNB-19 CNS it was over 100 µM; with SNB-75 CNS, 86 µM; in the test with HCC-2998 colon, 67 µM; with 786-0 renal, 31.6 µM; in the test with HT29 colon it was over 100 µM. Besides, the TGI in the test with MOLT-4 leukemia was 34.1 µM; with NCI-H23 lung, over 100 µM; in the test with PC-3 prostate, 37.5 µM; in the test on DU-145 prostate, 45.6 µM.

(Values after PubChem BioAssay (NCI).)
